These results are taken from patent US20090076006A1, “HSP90 INHIBITORS CONTAINING A ZINC BINDING MOIETY” (priority 2007, published 2009).

The target in one data set is T1, HSP90 (Homo sapiens, UniProt P07900).
T1 construct: purchased Assay Design SPP-776F
Put plainly: HSP90 assay (chaperone luciferase refolding / competition binding fluorescence polarization). The conditions noted are these: Table B does not say which of the two described. On the procedure: (a) An In Vitro Assay which Determines the Ability of a Test Compound to Inhibit Hsp90 Chaperone Activity.
The Hsp90 chaperone assay was performed to measure the ability of HSP90 protein to refold the heat-denatured luciferase protein. HSP90 was first incubated with different concentrations of test compounds in denaturation buffer (25 mM Tris, pH7.5, 8 mM MgSO4, 0.01% bovine gamma globulin and 10% glycerol) at room temperature for 30 min. Luciferase protein was added to denaturation mix and incubated at 50° C. for 8 min. The final concentration of HSP90 and luciferase in denaturation mixture were 0.375 μM and 0.125 μM respectively. A 5 μl sample of the denatured mix was diluted into 25 μl of renaturation buffer (25 mM Tris, pH7.5, 8 mM MgSO4, 0.01% bovine gamma globulin and 10% glycerol, 0.5 mM ATP, 2 mM DTT, 5 mM KCl, 0.3 μM HSP70 and 0.15 μM HSP40). The renaturation reaction was incubated at room temperature for 150 min, followed by dilution of 10 μl of the renatured sample into 90 μl of luciferin reagent (Luclite, PerkinElmer Life Science). The mixture was incubated at dark for 5 min before reading the luminescence signal on a TopCount plate reader (PerkinElmer Life Science).
(b) HSP90 Competition Binding (Fluorescence Polarization) Assay.
A fluorescein isothiocyanate (FITC) labeled GM was purchase from InvivoGen (ant-fgl-1). The interaction between HSP90 and labeled GM forms the basis for the fluorescence polarization assay. A free and fast-tumbling FITC labeled GM emits random light with respect to the plane of polarization plane of excited light, resulting in a lower polarization degree (mP) value. When GM is bound to HSP90, the complex tumble slower and the emitted light is polarized, resulting in a higher mP value. This competition binding assay was performed in 96-well plate and with each assay contained 10 and 50 nM of labeled GM and purified HSP90 protein (Assay Design, SPP-776F) respectively. The assay buffer contained 20 mM HEPES (pH 7.3), 50 mM KCl, 1 mM DTT, 50 mM MgCl2, 20 mM Na2MoO4, 0.01% NP40 with 0.1 mg/ml bovine gamma-globulin. Compounds are diluted in DMSO and added to the final assay before labeled GM with concentration range from 20 uM to 2 nM. mP value was determined by BioTek Synergy II with background subtraction after 24 hours of incubation at 4° C.

The test system of data set [1] is HDAC (HeLa nuclear extract). The data set is described as follows: HDAC fluorimetric assay (inhibition of HDAC enzymatic activity). The note with it: HDAC fluorimetric assay kit. The class given is biochemical. The procedure: (c) An In Vitro Assay which Determines the Ability of a Test Compound to Inhibit HDAC Enzymatic Activity.
HDAC inhibitors were screened using an HDAC fluorimetric assay kit (AK-500, Biomol, Plymouth Meeting, Pa.). Test compounds were dissolved in dimethylsulphoxide (DMSO) to give a 20 mM working stock concentration. Fluorescence was measured on a WALLAC Victor 2 plate reader and reported as relative fluorescence units (RFU). Data were plotted using GraphPad Prism (v4.0a) and IC50's calculated using a sigmoidal dose response curve fitting algorithm. Each assay was setup as follows: Defrosted all kit components and kept on ice until use. Diluted HeLa nuclear extract 1:29 in Assay Buffer (50 mM Tris/Cl, pH 8.0, 137 mM NaCl, 2.7 mM KCl, 1 mM MgCl2). Prepared dilutions of Trichostatin A (TSA, positive control) and tested compounds in assay buffer (5× of final concentration). Diluted Fluor de Lys™ Substrate in assay buffer to 100 uM (50 fold=2× final). Diluted Fluor de Lys™ developer concentrate 20-fold (e.g. 50 μl plus 950 μl Assay Buffer) in cold assay buffer. Second, diluted the 0.2 mM Trichostatin A 100-fold in the 1× Developer (e.g. 10 μl in 1 ml; final Trichostatin A concentration in the 1× Developer=2 μM; final concentration after addition to HDAC/Substrate reaction=1 μM). Added Assay buffer, diluted trichostatin A or test inhibitor to appropriate wells of the microtiter plate. Added diluted HeLa extract or other HDAC sample to all wells except for negative controls. Allowed diluted Fluor de Lys™ Substrate and the samples in the microtiter plate to equilibrate to assay temperature (e.g. 25 or 37° C. Initiated HDAC reactions by adding diluted substrate (25 μl) to each well and mixing thoroughly. Allowed HDAC reactions to proceed for 1 hour and then stopped them by addition of Fluor de Lys™ Developer (50 μl). Incubated plate at room temperature (25° C.) for 10-15 min. Read samples in a microtiter-plate reading fluorimeter capable of excitation at a wavelength in the range 350-380 nm and detection of emitted light in the range 440-460 nm.

Molecules are shown by their SMILES.

In turn, `CCNC(=O)c1noc(-c2cc(C(C)C)c(O)cc2O)c1-c1ccc(CN(C)CCCC(=O)NO)cc1` [Compound 18, 5-(2,4-dihydroxy-5-isopropylphenyl)-N-ethyl-4-(4-(((4-(hydroxyamino)-4-oxobutyl)(methyl)amino)methyl)phenyl)isoxazole-3-carboxamide] yielded a melting point of 132 to 134 °C. For the same compound, at HSP90, the IC50 was no more than 100 nM. For the same compound, the IC50 in data set [1] was no less than 10000 nM.

For `CCNC(=O)c1noc(-c2cc(Cl)c(O)cc2O)c1-c1ccc(OCCCCCCC(=O)NO)cc1` [Compound 4, 5-(5-chloro-2,4-dihydroxyphenyl)-N-ethyl-4-(4-(7-(hydroxylamino)-7-oxoheptyloxy)phenyl)isoxazole-3-carboxamide], the results for the IC50 (at HSP90; in data set [1]) were no more than 100 nM and 100 to 1000 nM, respectively.

For `CCNC(=O)c1noc(-c2cc(C(C)C)c(O)cc2O)c1-c1ccc(CNCCCCCCC(=O)NO)cc1` [Compound 23, 5-(2,4-dihydroxy-5-isopropylphenyl)-N-ethyl-4-(4-((7-(hydroxyamino)-7-oxoheptylamino)methyl)phenyl)isoxazole-3-carboxamide], the melting point was in the range of 126 to 128 °C. Besides, the IC50 at HSP90 was no more than 100 nM. Moreover, the IC50 in data set [1] was 100 to 1000 nM.

`CCNC(=O)c1noc(-c2cc(Cl)c(O)cc2O)c1-c1ccc(OCCCCC(=O)NO)cc1` [Compound 2, 5-(5-Chloro-2,4-dihydroxyphenyl)-N-ethyl-4-(4-(5-(hydroxyamino)-5-oxopentyloxy)phenyl)isoxazole-3-carboxamide]: the values for the 50% inhibitory concentration (IC50) (on HSP90; in data set [1]) were no more than 100 nM and 1000 to 10000 nM, respectively.

The compound `CC(C)c1cc(-c2onc(C(=O)NCCCCCCCC(=O)NO)c2-c2ccc(CN3CCOCC3)cc2)c(O)cc1O` [Compound 29, 5-(2,4-Dihydroxy-5-isopropylphenyl)-N-(8-(hydroxyamino)-8-oxooctyl)-4-(4-(morpholinomethyl)phenyl)isoxazole-3-carboxamide] returned a melting point of 117 to 119 °C. Further, on HSP90, the IC50 is no more than 100 nM. This compound also displayed an IC50 in data set [1] of 100 to 1000 nM.

`CCNC(=O)c1noc(-c2cc(C(C)C)c(O)cc2O)c1-c1ccc(CN(C)CCC(=O)NO)cc1` [Compound 16, 5-(2,4-dihydroxy-5-isopropylphenyl)-N-ethyl-4-(4-(((3-(hydroxyamino)-3-oxopropyl)(methyl)amino)methyl)phenyl)isoxazole-3-carboxamide] had a melting point of 120 to 122 °C. For the same compound, on HSP90, the IC50 was no more than 100 nM. The compound further showed an IC50 in data set [1] of no less than 10000 nM.

`COc1ccc(-c2c(C(=O)NCCC(=O)NO)noc2-c2cc(Cl)c(O)cc2O)cc1` [Compound 5, 5-(5-chloro-2,4-dihydroxyphenyl)-N-(3-(hydroxyl-amino)-3-oxopropyl)-4-(4-methoxyphenyl)isoxazole-3-carboxamide]: the IC50 on HSP90 is no more than 100 nM; in data set [1], 1000 to 10000 nM.

Take `CC(C)c1cc(-c2onc(C(=O)NCCCCCC(=O)NO)c2-c2ccc(CN3CCOCC3)cc2)c(O)cc1O` [Compound 27, 5-(2,4-Dihydroxy-5-isopropylphenyl)-N-(6-(hydroxyamino)-6-oxohexyl)-4-(4-(morpholinomethyl)phenyl)isoxazole-3-carboxamide]: the melting point lay in the range of 164 to 166 °C. At HSP90, the IC50 is no more than 100 nM. In addition, the IC50 in data set [1] is 100 to 1000 nM.

In turn, `COc1ccc(-c2c(C(=O)N3CCN(c4ncc(C(=O)NO)cn4)CC3)noc2-c2cc(Cl)c(O)cc2O)cc1` [Compound 11, 2-(4-(5-(5-chloro-2,4-dihydroxyphenyl)-4-(4-methoxyphenyl)isoxazole-3-carbonyl)piperazin-1-yl)-N-hydroxypyrimidine-5-carboxamide] registered a melting point of 186 to 190 °C. In addition, on HSP90, the IC50 is 100 to 1000 nM. The IC50 in data set [1] is no more than 100 nM.

`CCNC(=O)c1noc(-c2cc(C(C)C)c(O)cc2O)c1-c1ccc(CNCCCCCC(=O)NO)cc1` [Compound 21, 5-(2,4-Dihydroxy-5-isopropylphenyl)-N-ethyl-4-(4-((6-(hydroxyamino)-6-oxohexylamino)methyl)phenyl)isoxazole-3-carboxamide] had a melting point of 134 to 135 °C. On HSP90, the IC50 was no more than 100 nM. In addition, in data set [1], the IC50 lay within 1000 to 10000 nM.

Regarding `CCNC(=O)c1noc(-c2cc(C(C)C)c(O)cc2O)c1-c1ccc(CN(C)CCCCCC(=O)NO)cc1` [Compound 22, 5-(2,4-Dihydroxy-5-isopropylphenyl)-N-ethyl-4-(4-(((6-(hydroxyamino)-6-oxohexyl)(methyl)amino)methyl)phenyl)isoxazole-3-carboxamide], the melting point is 113 to 115 °C. Besides, the IC50 at HSP90 is no more than 100 nM. The compound also displayed an IC50 in data set [1] of 1000 to 10000 nM.

For `COc1ccc(-c2c(C(=O)NCCCCCC(=O)NO)noc2-c2cc(Cl)c(O)cc2O)cc1` [Compound 8, 5-(5-chloro-2,4-dihydroxyphenyl)-N-(6-(hydroxylamino)-6-oxohexyl)-4-(4-methoxyphenyl)isoxazole-3-carboxamide], the IC50 on HSP90 was no more than 100 nM; in data set [1], 100 to 1000 nM.

Take `CC(C)c1cc(-c2onc(C(=O)NCCCC(=O)NO)c2-c2ccc(CN3CCOCC3)cc2)c(O)cc1O` [Compound 25, 5-(2,4-Dihydroxy-5-isopropylphenyl)-N-(4-(hydroxyamino)-4-oxobutyl)-4-(4-(morpholinomethyl)phenyl)isoxazole-3-carboxamide]: the melting point lay within 129 to 130 °C. For the same compound, the IC50 at HSP90 is no more than 100 nM.

As to `COc1ccc(-c2c(C(=O)NCCCCCCC(=O)NO)noc2-c2cc(Cl)c(O)cc2O)cc1` [Compound 9, 5-(5-chloro-2,4-dihydroxyphenyl)-N-(7-(hydroxylamino)-7-oxoheptyl)-4-(4-methoxyphenyl)isoxazole-3-carboxamide], the IC50 (at HSP90; in data set [1]) was no more than 100 nM in each case.

On to `CCNC(=O)c1noc(-c2cc(Cl)c(O)cc2O)c1-c1ccc(OCCCC(=O)NO)cc1` [Compound 1, 5-(5-chloro-2,4-dihydroxyphenyl)-N-ethyl-4-(4-(4-(hydroxyamino)-4-oxobutoxy)phenyl)isoxazole-3-carboxamide], for which the IC50 at HSP90 is no more than 100 nM; in data set [1] it was 100 to 1000 nM.

As to `CCNC(=O)c1noc(-c2cc(Cl)c(O)cc2O)c1-c1ccc(OCCCCCC(=O)NO)cc1` [Compound 3, 5-(5-Chloro-2,4-dihydroxyphenyl)-N-ethyl-4-(4-(6-(hydroxyamino)-6-oxohexyloxy)phenyl)isoxazole-3-carboxamide], the IC50 is no more than 100 nM on HSP90 and 100 to 1000 nM in data set [1].

In the case of `COc1ccc(-c2c(C(=O)NCCCC(=O)NO)noc2-c2cc(Cl)c(O)cc2O)cc1` [Compound 6, 5-(5-chloro-2,4-dihydroxyphenyl)-N-(4-(hydroxyamino)-4-oxobutyl)-4-(4-methoxyphenyl)isoxazole-3-carboxamide], the IC50 at HSP90 is no more than 100 nM; in data set [1] it was 1000 to 10000 nM.

For the compound `COc1ccc(-c2c(C(=O)NCCCCCCCC(=O)NO)noc2-c2cc(Cl)c(O)cc2O)cc1` [Compound 10, 5-(5-chloro-2,4-dihydroxyphenyl)-N-(8-(hydroxylamino)-8-oxooctyl)-4-(4-methoxyphenyl)isoxazole-3-carboxamide], the IC50 (on HSP90; in data set [1]) was no more than 100 nM throughout.
